Assay results: ChEMBL document CHEMBL5725273, “Thienopyranones as kinase and epigenetic inhibitors” (2016)

What was measured:
[1] = molecular target: T1, Phosphatidylinositol 4,5-bisphosphate 3-kinase catalytic subunit delta isoform (Homo sapiens, UniProt O00329); assay: (§1) Inhibition Assay: Several TP Scaffold compounds were tested for inhibition activity against isoforms of PI3K (alpha, beta, gamma, and delta isoforms) and the bromodomain protein BRD4 at regions 1 (BRD4-1) and 2 (BRD4-2).
T1 sequence (O00329 whole entry): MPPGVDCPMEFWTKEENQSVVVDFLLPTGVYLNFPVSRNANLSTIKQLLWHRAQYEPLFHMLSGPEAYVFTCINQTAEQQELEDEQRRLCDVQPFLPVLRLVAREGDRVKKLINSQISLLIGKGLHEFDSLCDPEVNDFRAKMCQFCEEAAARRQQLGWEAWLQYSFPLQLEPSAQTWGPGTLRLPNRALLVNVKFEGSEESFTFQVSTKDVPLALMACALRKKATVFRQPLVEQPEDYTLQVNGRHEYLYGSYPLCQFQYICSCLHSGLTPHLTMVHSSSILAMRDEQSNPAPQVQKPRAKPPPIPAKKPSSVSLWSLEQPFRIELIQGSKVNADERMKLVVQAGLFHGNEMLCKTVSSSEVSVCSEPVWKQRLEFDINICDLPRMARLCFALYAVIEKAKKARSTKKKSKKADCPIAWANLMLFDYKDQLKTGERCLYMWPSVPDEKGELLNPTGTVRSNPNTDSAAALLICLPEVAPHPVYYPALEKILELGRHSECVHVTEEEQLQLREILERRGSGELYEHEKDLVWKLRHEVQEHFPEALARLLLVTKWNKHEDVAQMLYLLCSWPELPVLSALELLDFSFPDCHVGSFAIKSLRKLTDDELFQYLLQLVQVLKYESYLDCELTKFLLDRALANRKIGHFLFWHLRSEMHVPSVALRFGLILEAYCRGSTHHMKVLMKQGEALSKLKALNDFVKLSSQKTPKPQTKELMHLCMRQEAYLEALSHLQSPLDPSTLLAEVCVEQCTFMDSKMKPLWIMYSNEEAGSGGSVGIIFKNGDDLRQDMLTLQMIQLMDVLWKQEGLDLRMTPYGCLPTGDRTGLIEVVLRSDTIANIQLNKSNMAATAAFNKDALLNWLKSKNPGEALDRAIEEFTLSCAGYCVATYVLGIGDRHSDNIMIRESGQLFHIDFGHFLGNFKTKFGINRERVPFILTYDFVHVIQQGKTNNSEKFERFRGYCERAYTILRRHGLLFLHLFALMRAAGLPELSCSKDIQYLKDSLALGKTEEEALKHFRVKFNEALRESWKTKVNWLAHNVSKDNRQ

[2] = molecular target: Phosphatidylinositol 4,5-bisphosphate 3-kinase catalytic subunit alpha isoform (Homo sapiens, UniProt P42336); assay: as §1
[3] = molecular target: Phosphatidylinositol 4,5-bisphosphate 3-kinase catalytic subunit gamma isoform (Homo sapiens, UniProt P48736); assay: as §1
[4] = molecular target: Bromodomain-containing protein 4 (Homo sapiens, UniProt O60885); assay: as §1

Sequence of Phosphatidylinositol 4,5-bisphosphate 3-kinase catalytic subunit gamma isoform (P48736 whole entry, canonical isoform): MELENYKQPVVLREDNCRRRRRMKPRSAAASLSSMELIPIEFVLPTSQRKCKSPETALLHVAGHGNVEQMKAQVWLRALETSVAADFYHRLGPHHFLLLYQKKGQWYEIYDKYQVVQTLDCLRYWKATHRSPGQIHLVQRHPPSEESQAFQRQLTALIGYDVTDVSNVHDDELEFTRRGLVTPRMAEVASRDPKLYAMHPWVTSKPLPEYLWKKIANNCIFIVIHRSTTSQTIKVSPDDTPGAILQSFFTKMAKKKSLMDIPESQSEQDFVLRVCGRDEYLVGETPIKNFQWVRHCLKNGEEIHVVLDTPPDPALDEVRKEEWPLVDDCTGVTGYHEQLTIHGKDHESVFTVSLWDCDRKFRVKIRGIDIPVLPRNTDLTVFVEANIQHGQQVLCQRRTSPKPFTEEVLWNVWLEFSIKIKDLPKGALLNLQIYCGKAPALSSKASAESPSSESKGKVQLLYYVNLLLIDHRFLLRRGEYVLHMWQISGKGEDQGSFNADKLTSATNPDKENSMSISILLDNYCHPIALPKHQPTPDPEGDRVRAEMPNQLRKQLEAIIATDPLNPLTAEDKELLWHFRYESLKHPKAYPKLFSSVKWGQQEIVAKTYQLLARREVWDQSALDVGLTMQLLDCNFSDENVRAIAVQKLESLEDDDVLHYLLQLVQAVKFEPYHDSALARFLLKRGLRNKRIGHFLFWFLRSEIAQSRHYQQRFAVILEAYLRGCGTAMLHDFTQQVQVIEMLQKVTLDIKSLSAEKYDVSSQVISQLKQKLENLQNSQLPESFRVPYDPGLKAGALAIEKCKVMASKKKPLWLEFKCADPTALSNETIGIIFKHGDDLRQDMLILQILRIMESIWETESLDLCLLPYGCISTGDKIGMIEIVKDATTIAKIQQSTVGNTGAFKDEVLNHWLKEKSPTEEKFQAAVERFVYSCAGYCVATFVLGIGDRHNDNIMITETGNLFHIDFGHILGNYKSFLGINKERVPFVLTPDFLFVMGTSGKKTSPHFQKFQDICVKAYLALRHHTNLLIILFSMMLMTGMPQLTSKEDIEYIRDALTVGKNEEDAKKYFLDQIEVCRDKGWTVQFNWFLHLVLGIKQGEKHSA
Sequence of Phosphatidylinositol 4,5-bisphosphate 3-kinase catalytic subunit alpha isoform (P42336 whole entry, canonical isoform): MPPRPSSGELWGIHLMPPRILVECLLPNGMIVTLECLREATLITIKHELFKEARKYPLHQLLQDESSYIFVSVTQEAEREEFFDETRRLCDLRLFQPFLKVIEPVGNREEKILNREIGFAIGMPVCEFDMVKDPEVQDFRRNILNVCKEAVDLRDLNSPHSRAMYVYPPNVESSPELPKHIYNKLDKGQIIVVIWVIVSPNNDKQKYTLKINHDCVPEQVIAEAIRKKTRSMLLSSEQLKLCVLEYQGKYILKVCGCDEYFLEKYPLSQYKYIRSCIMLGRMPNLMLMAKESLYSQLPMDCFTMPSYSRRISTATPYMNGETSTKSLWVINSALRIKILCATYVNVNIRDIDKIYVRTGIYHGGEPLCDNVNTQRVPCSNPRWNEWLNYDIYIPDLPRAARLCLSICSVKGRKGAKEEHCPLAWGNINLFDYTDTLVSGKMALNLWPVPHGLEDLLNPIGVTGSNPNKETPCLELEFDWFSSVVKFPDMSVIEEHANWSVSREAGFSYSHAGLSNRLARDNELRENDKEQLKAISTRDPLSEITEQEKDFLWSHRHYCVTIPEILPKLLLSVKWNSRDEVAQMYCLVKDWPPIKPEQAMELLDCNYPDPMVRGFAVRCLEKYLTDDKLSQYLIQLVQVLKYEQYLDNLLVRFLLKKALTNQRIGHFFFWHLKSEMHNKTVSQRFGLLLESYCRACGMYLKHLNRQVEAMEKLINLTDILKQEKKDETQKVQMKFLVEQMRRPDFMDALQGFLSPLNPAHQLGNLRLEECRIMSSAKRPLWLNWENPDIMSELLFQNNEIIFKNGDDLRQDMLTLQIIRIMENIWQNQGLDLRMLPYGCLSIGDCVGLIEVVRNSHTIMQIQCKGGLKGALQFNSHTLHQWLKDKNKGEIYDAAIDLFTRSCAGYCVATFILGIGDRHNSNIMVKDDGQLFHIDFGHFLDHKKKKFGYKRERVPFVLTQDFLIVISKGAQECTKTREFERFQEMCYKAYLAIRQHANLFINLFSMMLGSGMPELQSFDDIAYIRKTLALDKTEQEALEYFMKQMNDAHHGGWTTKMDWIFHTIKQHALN

- IC50 [1]: 2490 nM
- IC50 [2]: 29100 nM
- IC50 [3]: > 50000 nM
- IC50 [4]: 1010 nM
SMILES: CCOC(=O)c1ccc(-c2csc3c(=O)cc(N4CCSCC4)oc23)cc1
